For orientation: IC50 means the concentration needed to halve the response being measured.

In experiment [1] the target is Serine/threonine-protein kinase pim-3 (Homo sapiens) (UniProt Q86V86). The experiment in a line: Selectivity interaction (Kinase panel (DSF assay)) EUB0001489b PIM3. (In general: Differential scanning fluorimetry follows unfolding on heating by fluorescence.)
In experiment [2] the target is T1, NUAK family SNF1-like kinase 1 (Homo sapiens) (UniProt O60285).
T1 sequence (whole entry): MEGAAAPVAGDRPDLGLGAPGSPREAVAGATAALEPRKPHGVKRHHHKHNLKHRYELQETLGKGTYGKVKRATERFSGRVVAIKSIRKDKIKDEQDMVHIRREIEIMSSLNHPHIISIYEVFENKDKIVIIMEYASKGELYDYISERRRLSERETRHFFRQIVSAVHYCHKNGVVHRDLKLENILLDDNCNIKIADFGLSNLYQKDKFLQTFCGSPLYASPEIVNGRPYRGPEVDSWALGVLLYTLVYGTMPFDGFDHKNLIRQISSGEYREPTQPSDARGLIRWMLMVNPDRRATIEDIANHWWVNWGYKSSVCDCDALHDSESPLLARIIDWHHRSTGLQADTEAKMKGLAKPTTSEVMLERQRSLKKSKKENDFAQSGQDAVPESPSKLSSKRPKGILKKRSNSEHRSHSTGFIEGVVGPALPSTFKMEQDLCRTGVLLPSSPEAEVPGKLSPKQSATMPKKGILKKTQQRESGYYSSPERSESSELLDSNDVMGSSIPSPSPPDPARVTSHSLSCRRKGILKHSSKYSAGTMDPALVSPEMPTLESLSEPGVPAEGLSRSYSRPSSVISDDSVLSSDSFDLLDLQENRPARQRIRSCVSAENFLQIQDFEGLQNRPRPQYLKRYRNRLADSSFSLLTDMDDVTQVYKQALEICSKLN
The experiment in a line: Selectivity interaction (Adapta Assay) EUB0001632a NUAK1. The settings on record: at 10 µM.

The target in experiment [3] is T2, Inhibitor of nuclear factor kappa-B kinase subunit alpha (Homo sapiens) (UniProt O15111).
T2 sequence (whole entry): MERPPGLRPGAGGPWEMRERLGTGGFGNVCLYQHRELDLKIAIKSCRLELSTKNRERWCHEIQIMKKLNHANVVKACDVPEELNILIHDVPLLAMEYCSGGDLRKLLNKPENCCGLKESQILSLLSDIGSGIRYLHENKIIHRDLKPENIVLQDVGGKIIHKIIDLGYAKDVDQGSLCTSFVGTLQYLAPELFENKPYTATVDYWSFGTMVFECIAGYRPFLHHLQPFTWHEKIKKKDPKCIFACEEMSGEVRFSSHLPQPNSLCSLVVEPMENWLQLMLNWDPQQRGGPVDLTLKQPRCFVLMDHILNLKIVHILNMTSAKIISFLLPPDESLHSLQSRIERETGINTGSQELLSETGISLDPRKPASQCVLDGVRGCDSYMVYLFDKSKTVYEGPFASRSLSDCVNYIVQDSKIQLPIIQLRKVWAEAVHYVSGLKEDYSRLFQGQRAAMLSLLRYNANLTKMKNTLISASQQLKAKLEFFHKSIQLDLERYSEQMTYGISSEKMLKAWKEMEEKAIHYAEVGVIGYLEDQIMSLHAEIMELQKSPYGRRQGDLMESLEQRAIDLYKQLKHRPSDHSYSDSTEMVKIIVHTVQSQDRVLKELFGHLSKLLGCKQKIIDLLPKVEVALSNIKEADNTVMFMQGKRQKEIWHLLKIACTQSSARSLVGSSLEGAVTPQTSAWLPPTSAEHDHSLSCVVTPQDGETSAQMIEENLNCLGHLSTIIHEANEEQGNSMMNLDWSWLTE
The experiment in a line: Selectivity interaction (KinomeScan (DiscoverX)) EUB0001619a CHUK. The settings on record: at 1 µM.

The target of experiment [4] is T3, Dual specificity mitogen-activated protein kinase kinase 3 (Homo sapiens) (UniProt P46734).
T3 sequence (whole entry): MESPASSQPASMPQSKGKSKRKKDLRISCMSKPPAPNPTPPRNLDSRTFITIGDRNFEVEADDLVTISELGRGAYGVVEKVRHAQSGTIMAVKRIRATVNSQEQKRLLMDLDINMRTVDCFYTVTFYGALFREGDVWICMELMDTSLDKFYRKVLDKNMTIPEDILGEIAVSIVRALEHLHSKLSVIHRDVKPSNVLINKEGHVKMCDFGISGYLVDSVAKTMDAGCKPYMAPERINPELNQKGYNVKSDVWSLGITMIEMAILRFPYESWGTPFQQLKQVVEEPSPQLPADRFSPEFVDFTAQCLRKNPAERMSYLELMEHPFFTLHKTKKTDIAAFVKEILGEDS
Conditions: at 10 µM.

Experiment [5] has as its target Cyclin-dependent kinase 11B (Homo sapiens) (UniProt P21127). Conditions: at 10 µM.
Another experiment deals with Misshapen-like kinase 1 (Homo sapiens, UniProt Q8N4C8). The experiment in a line: Selectivity interaction (Enzymatic assay) EUB0001199aCl MINK1.
Experiment [6] addresses MAP kinase-interacting serine/threonine-protein kinase 1 (Homo sapiens) (UniProt Q9BUB5). The experiment in a line: Selectivity interaction (KinomeScan (DiscoverX)) EUB0001049a MKNK1. The settings on record: at 1 µM.
The next experiment concerns the target Adenosine receptor A1 (Homo sapiens, UniProt P30542). The experiment in a line: Selectivity interaction (Adenosine 1 receptor binding assay, human recombinant) EUB0000877a ADORA1.
Experiment [7] addresses Cyclin-dependent kinase-like 3 (Homo sapiens) (UniProt Q8IVW4). The experiment in a line: Selectivity interaction (KinomeScan (DiscoverX)) EUB0000655a CDKL3. Conditions: at 10 µM.
Experiment [8] deals with Mitogen-activated protein kinase 6 (Homo sapiens) (UniProt Q16659). The experiment in a line: Selectivity interaction (KinomeScan (DiscoverX)) EUB0000092b MAPK6. Conditions: at 10 µM.
Experiment [9] concerns the target Tyrosine-protein kinase JAK1 (Homo sapiens, UniProt P23458). The experiment in a line: Selectivity interaction (SelectScreen Kinase Profiling (Thermo Fisher Scientific)) EUB0001558a JAK1. The settings on record: at 1 µM.

Chain of Cyclin-dependent kinase-like 3 (Homo sapiens) (Q8IVW4 whole entry, looked up): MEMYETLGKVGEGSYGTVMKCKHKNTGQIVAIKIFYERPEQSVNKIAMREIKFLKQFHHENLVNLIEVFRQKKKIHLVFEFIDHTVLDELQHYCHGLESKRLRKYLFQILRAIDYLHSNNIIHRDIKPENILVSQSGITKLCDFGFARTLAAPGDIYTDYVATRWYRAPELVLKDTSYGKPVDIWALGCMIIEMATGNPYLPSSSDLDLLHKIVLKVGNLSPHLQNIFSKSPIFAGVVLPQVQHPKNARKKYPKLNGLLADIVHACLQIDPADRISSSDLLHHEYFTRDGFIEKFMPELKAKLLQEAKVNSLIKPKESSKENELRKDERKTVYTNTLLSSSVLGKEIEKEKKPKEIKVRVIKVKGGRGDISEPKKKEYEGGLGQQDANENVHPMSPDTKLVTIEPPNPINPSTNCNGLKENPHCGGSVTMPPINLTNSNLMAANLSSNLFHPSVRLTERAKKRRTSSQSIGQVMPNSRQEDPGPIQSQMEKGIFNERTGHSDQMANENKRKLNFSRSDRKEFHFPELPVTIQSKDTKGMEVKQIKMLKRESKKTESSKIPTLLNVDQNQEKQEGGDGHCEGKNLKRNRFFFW
Chain of Adenosine receptor A1 (P30542 whole entry): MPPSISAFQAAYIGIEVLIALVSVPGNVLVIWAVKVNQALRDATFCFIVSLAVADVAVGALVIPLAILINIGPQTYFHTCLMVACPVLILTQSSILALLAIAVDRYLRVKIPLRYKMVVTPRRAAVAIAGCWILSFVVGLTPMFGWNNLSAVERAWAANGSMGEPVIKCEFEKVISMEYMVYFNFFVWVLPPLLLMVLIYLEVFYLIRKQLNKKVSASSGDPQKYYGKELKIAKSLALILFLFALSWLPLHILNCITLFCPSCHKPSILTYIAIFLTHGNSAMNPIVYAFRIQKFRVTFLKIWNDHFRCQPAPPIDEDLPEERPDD
Chain of Cyclin-dependent kinase 11B (Homo sapiens) (P21127 whole entry): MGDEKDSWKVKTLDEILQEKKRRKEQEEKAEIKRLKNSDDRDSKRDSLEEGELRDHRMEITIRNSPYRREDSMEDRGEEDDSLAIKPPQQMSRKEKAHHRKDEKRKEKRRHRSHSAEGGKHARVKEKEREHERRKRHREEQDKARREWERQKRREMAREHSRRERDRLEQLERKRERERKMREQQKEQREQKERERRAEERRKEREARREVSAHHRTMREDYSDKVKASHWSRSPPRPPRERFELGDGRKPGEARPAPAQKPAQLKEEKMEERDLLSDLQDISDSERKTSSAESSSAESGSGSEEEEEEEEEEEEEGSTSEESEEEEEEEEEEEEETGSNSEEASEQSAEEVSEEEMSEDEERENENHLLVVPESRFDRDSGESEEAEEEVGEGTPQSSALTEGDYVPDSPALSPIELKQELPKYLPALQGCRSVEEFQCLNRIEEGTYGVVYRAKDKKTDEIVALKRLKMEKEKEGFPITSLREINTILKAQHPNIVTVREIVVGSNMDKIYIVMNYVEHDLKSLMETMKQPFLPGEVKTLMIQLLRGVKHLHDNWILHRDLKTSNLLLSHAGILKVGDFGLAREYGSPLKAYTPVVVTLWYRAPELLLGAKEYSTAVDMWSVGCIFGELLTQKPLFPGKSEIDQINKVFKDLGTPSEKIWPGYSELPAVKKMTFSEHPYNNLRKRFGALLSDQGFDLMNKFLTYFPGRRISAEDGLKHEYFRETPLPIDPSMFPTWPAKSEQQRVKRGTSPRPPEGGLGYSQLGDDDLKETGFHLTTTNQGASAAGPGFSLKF
Chain of Mitogen-activated protein kinase 6 (Homo sapiens) (Q16659 whole entry): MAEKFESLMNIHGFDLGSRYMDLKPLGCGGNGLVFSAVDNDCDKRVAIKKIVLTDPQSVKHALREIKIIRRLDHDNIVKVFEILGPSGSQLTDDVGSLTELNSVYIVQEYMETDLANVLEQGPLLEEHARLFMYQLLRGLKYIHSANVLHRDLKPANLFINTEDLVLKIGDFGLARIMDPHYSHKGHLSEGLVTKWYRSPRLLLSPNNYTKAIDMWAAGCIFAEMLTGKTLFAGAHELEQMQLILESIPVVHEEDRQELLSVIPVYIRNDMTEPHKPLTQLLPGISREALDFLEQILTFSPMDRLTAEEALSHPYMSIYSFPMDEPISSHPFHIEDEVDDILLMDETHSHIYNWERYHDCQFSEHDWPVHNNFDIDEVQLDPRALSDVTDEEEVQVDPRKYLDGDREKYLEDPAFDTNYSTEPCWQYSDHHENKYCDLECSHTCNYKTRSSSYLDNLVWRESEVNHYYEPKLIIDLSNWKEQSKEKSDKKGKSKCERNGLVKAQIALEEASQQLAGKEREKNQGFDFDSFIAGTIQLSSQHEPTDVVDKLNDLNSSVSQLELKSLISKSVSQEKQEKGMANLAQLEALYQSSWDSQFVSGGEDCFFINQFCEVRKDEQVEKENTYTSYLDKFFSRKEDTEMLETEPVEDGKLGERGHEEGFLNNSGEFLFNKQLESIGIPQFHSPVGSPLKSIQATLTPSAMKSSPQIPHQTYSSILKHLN
Chain of MAP kinase-interacting serine/threonine-protein kinase 1 (Homo sapiens) (Q9BUB5 whole entry, looked up): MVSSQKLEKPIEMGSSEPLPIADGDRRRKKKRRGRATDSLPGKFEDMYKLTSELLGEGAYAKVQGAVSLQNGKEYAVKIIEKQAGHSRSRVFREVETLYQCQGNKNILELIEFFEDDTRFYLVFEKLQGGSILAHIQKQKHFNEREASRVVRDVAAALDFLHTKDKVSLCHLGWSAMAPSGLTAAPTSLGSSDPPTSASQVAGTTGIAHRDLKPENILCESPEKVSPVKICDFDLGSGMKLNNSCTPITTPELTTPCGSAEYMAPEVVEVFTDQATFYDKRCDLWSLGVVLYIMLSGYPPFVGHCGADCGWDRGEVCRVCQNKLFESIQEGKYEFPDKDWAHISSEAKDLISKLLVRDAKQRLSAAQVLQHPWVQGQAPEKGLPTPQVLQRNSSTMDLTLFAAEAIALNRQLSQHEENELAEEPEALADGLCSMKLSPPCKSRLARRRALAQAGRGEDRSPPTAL
Chain of Misshapen-like kinase 1 (Q8N4C8 whole entry): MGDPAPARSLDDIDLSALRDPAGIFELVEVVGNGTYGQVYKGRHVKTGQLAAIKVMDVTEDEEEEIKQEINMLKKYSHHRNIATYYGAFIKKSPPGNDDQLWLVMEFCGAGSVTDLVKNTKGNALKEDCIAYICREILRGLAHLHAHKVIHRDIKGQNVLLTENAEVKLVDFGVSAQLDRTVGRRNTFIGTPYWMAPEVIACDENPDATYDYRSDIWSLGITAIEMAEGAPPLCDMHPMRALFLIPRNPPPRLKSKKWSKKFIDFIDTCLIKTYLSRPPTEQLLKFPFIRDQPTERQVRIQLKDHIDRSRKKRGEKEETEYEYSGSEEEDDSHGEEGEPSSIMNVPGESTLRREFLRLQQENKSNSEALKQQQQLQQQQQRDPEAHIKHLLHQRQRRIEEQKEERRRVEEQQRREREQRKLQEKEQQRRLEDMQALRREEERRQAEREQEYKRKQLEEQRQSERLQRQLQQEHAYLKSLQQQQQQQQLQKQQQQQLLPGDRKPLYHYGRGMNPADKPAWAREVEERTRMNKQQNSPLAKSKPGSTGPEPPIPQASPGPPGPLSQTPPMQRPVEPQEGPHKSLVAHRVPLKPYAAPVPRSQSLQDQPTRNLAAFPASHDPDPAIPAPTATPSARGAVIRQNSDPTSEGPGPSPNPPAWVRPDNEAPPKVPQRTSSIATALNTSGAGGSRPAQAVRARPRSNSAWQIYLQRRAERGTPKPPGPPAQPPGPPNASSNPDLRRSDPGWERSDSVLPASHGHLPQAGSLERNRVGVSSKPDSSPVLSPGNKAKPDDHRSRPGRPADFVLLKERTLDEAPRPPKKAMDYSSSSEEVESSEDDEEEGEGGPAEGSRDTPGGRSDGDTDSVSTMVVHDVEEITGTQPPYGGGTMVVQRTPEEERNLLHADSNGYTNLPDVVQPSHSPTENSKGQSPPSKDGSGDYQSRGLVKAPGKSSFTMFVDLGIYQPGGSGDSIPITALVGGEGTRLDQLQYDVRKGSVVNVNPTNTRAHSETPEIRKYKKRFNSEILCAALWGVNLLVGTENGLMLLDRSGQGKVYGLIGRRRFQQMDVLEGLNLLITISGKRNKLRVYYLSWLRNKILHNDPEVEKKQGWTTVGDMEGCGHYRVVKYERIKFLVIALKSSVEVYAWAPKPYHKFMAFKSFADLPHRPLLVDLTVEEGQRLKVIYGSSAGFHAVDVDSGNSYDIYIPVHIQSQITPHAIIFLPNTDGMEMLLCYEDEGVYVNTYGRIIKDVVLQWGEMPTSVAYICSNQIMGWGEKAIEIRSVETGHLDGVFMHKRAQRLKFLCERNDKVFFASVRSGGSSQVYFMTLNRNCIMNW

On to `CN1CCN(C(=O)c2ccc3cc2OCCOCCNc2ccn4ncc-3c4n2)CC1`, for which the dTM in experiment [1] came to 2.1 K.
Turning to `Cn1cc(-n2cnc3c(NCc4nc5cc(Cl)c(Cl)cc5[nH]4)nc(N4CCOCC4)nc32)cn1`, the % of inhibition in experiment [2] turned out to be 15.2%.
`N#Cc1cccc(-c2c[nH]c3ncnc(N4CCOCC4)c23)c1`: the % of control in experiment [3] was determined as 71%.
Regarding `Cc1cc([C@@H](C)Nc2ccccc2C(=O)O)c2nc(N3CCOCC3)cc(=O)n2c1` [AZD-6482], the % of control in experiment [4] and in [5] was 100% in each case.
Turning to `CN1Cc2nccc(-c3cn(C)nc3-c3ccc(F)cc3)c2C1=O`, the IC50 on Misshapen-like kinase 1 was determined as 1.57 µM.
Regarding `COc1cc(Nc2nc(C)cc(-c3cnn4nc(OC)ccc34)n2)cc(C(F)(F)F)c1`, the % of control in experiment [6] is 93%.
`CCC(=O)N1CC[C@H](Nc2ncnc3c2CN(c2cnc(OC)c(C(F)(F)F)c2)CC3)C1` [LENIOLISIB]: the IC50 at Adenosine receptor A1 is above 30 µM.
With `CN(C)CCOc1ccc(-c2nc(-c3ccncc3)c(-c3ccc4c(c3)CC/C4=N\O)[nH]2)cc1`, the % of control in experiment [7] was determined as 100%.
Consider `CCC(=O)N1CCN(c2ccc(-n3c(=O)ccc4cnc5ccc(-c6cnc7ccccc7c6)cc5c43)cc2C(F)(F)F)CC1`, for which the % of control in [8] amounted to 1.8%.
`CC(C)(O)[C@H](F)CN1Cc2cc(NC(=O)c3cnn4cccnc34)c(N3CCOCC3)cc2C1=O` yielded a % of inhibition in [9] of 83.5%.

Source of the values: ChEMBL document CHEMBL5465560, “Selectivity Literature for EUbOPEN Chemogenomic Library” (2024).
